Key:
[1] = set-up: species or system male mice of CrjCD(SD) type; details: mouse, in vivo, sc, 500 mg/kg
Experimental: Toxicological studies have been carried out using a group of 10 male mice of CrjCD(SD) type weighing from 20 to 23 grams. A solution containing the carbapenem compound (15) of the present invention obtained by Example 6 was administered subcutaneously to the mice and subjected to observations for one week.

[2] = system: C. freundii resistant strains; experiment: Sensitivity test against clinical isolates, C. freundii resistant strains; type: cell-based; details: CFIX/CTX resistant strains
Experimental: Cefixime (CFIX) (50 to >100 μg/ml)
Cefotaxime (CTX) (50 to >100 μg/ml)
The tests were carried out in the same manner as described above Test 1.

[3] = system: P. aeruginosa resistant strains; experiment: Sensitivity test against clinical isolates, P. aeruginosa resistant strains; type: cell-based; details: 54 resistant strains
Experimental: It is noted here that the 54 strains have been chosen because there have been the strains in duplicate with the agents. ______________________________________ Ceftazidime (CAZ) (25 to 100 μg/ml) 21 strains Cefsulodine (CFS) (25 to >100 μg/ml) 23 strains Piperacilin (PIPC) (25 to >100 μg/ml) 15 strains Gentamycin (GM) (25 to >100 μg/ml) 21 strains Amikacin (AMK) (25 to >100 μg/ml) 26 strains Ofloxacin (OFLX) (25 to >100 μg/ml) 4 strains ______________________________________
A minimum inhibitory concentration (MIC) was determined in substantially the same manner as the test procedures II above using the 54 strains of P. aeruginosa having an anti-Pseudomonas resistance.

[4] = system: Swine Kidney Dehydropeptidase-I (DHP-I); experiment: Hydrolysis activity against DHP-I enzyme substrate by late assay; type: in vitro ADME; details: final substrate concentration 100 μM, 10 minutes, pH 7.1
Experimental: The swine kidney (8 kg) was homogenized and an enzyme protein was allowed to precipitate. After a connective lipid was removed with acetone, the resultant material was made soluble by treatment with butanol and purified in the order by the ammonium sulfate fraction method, thereby producing DPH-I enzyme from a 75% ammonium sulfate fraction.
The DHP-I enzyme was then adjusted to give an enzyme concentration of 25 mg/10 ml (phosphate buffer, pH 7.1), and divided into 1 ml portions. The portions were frozen and stored at -40° C. or less until use.
As control compounds were employed glycyl dehydrophenylalanine (Gl-dh-Ph) and imipenem, and they were adjusted in situ each to give the concentration of 177 μM with the same sodium phosphate buffer solution.
To 1.2 ml of a 50 mM sodium phosphate buffer solution (substrate) containing 177 μM of each of Gh-dh-Ph and imipenem as the control compounds was added 0.2 ml of the DHP-I enzyme solution (25 mg/10 ml) prepared above in the final substrate concentration of 100 μM. The solution was then incubated at […] for 10 minutes. An initial velocity of hydrolysis of the substrate was measured from a decrease in absorbency at a particular λmax of each of the substrates.
A blank test was conducted in substantially the same manner as above by adding 0.2 ml of the sodium phosphate buffer solution (pH 7.1) to 1.2 ml of the above substrate.

| Structure (SMILES) | survival and abnormal observations [1] | test microorganisms whose growth is inhibited ([2]; concentration of 0.78 μg/ml) | test microorganisms whose growth is inhibited ([2]; concentration of 1.56 μg/ml) | test microorganisms whose growth is inhibited ([3]; concentration of 12.5 μg/ml) | test microorganisms whose growth is inhibited ([3]; concentration of […]) | initial velocity of hydrolysis against DHP-I [4] [µM/min] |
| --- | --- | --- | --- | --- | --- | --- |
| C[C@@H](O)[C@H]1C(=O)N2C(C(=O)[O-])=C(SC3Cn4cnc[n+]4C3)[C@H](C)[C@H]12 (stereo partly drawn) [Compound 15, 6-[(R)-1-hydroxyethy]-1-methyl-2-(5H-pyrazolo[1,2-a]triazolinium-6-yl) thio-carbapenem-3-carboxylic acid] | alive without any abnormal observations | approximately 98% | all the test microorganisms | all the test microorganisms | approximately 98% | – |
| NCC(=O)NC(=Cc1ccccc1)C(=O)O [Gl-dh-Ph, glycyl dehydrophenylalanine] | – | – | – | – | – | 17.4 |

From patent US4990613A, “(1R,5S,6S)-2-[(6,7-dih ydro-5H-pyrazolo[1,2-a][1,2,4]triazolium-6-yl)]thio-6-[R-1-hydroxyethyl]- 1-methyl-carbapenem-3-carboxylate and intermediate therefor” (Lederle (Japan), Ltd., priority 1987, dated 1991)
